# Results: US20030180345A1, “Compositions and methods for inhibiting islet dysfunction and autoimmune disorders” (priority 2000, published 2003)
# Legend:
# [1] = system: NOD mice; assay: Onset of diabetes (glucosurea) in female NOD offspring after maternal taurine supplementation; type: in vivo
# Excerpt: Pregnant NOD mice were obtained and maintained on a control diet as described in Example 13. Pregnant mice were either supplemented with taurine in the drinking water (n=51) or were unsupplemented (n=37) throughout pregnancy. The supplemented group received taurine at a concentration of 2.5% (w/v) in drinking water. Considering the average amount of water consumed, this is equivalent to a taurine consumption of about 0.75 g/day per animal. Taurine supplementation ceased post-partum, and offspring were allowed to nurse for 21 days. […] Onset of diabetes was determined by the appearance of glucosurea which was assessed using glucose detection sticks.
# [2] = system: iNOS; assay: Islet iNOS immunoreactivity with dietary taurine supplementation; type: in vivo, Wistar rats; settings: all stages
# Description: Animals and diets were prepared as described in Example 8. The pancreas was removed, and the presence of Fas, Fas ligand, inducible nitric oxide synthase (iNOS) and vascular endothelial growth factor (VEGF) were evaluated in pancreatic sections using immunoreactivity.
smiles,measurement,setting,value
"NCCS(=O)(=O)O [taurine, 2-aminoethylsulfonic acid]",proportion of female offspring showing diabetes,"[1]; at 25 weeks, maternal taurine 2.5% (w/v) in drinking water during pregnancy",about half
same,proportion of taurine-supplemented group still not diabetic,[1]; at 50 weeks,about 10%
same,iNOS immunoreactivity,[2],no effect
